Test results reported in patent publication US4666908A, “5-Substituted pyrazolo[4,3-d]pyrimidine-7-ones and methods of use” (Warner-Lambert Company, priority 1985, dated 1987).
Where two headings read alike, the source gives them in different places.

Legend:
Type 1 Phosphodiesterase = test: Phosphodiesterase (PDE) Inhibition, Type 1 Phosphodiesterase; assay type: biochemical, bovine (coronary arteries); details: Type 1 PDE, at 10^-5 M; for % Inhibition of hydrolysis of 3H-cAMP: substrate 3H-cAMP 1.0 μM; for % Inhibition of hydrolysis of 3H-cGMP: substrate 3H-cGMP 1.0 μM
From the text: (§1) The method of Thompson, et al (Thompson, W. J., Terasaki, W. L., Epstein, P. M., Strada, S. J., Adv. Cyclic Nucleotide Res., 10:69-92, 1979), with minor modifications, was used to isolate phosphodiesterases from vascular smooth muscle. Bovine coronary arteries (right, anterior descending, and left circumflex arteries) from hearts obtained from a local slaughterhouse were used for these studies. Arteries from two hearts were used for each isolation. Hearts were kept on ice and the arteries were dissected within two hours after the animals were sacrificed. After removing all fat and connective tissue, the arteries were everted, cut into cubes with a single edge razor blade and homogenized with a Brinkman Polytron three times at a rheostat setting of 10.0 in four volumes of the PDE isolation buffer (10 mM Tris-HCl/pH 7.5, 2 mM MgCl2, and 1 mM dithiothreitol). The resulting homogenate was sonicated (30 sec/ml homogenate) and then centrifuged at 30,000 xg for 20 minutes. This and all subsequent procedures were performed at 4° C. The resulting supernatant was filtered through four layers of gauze, and applied to a DEAE-cellulose column (30×1.5 cm), prepared as described by Cheung (Cheung, W. Y., Biochim. Biophys. Acta, 191:303-315, 1969), and equilibrated with freshly prepared 70 mM sodium acetate/5 mM 2-mercaptoethanol (pH 6.5). The column was then washed with 2-3 bed volumes of sodium acetate/2-mercaptoethanol, after which the phosphodiesterases were eluted from the column using a continuous 70-1,000 mM sodium acetate gradient (pH 6.5, containing 5 mM 2-mercaptoethanol; total volume 400 ml). The flow rate was approximately equal to 25 ml/hr. Eight ml fractions were collected and assayed for cyclic AMP- and cyclic GMP-phosphodiesterase activity in the presence and absence of 0.1 units of calmodulin and 10 mM CaCl2. Appropriate fractions were pooled and dialyzed against 70 mM sodium acetate/5 mM 2-mercaptoethanol for 20 hours.
(§2) Following complete separation, the combined phosphodiesterase fractions were concentrated to 14% of the original volume using an Amicon ultrafiltration cell fitted with a UM-10 membrane, according to the method of Wells, et al (Wells, J. N., Baird, C. E., Wu, Y. J., Hardman, J. G., Biochim. Biophys. Acta, 384:430-442, 1975). Following concentration, the protein was then diluted to 65% with ethylene glycol monoethyl ether, and stored at -20° C.
(§3) Phosphodiesterase activity was measured as described previously (Weishaar, P. E., Quade, M., Boyd, D., Schenden, J., Mark, S. S., Kaplan, H. R., Drug Devel. Res., 3:517-534, 1983), in a reaction medium containing 40 mM Tris-HCl (pH 8.0), 5 mM MgCl and 4 mM 2-mercaptoethanol. Unless otherwise noted, the concentration of substrate (^3 H-cyclic AMP or ^3 H-cyclic GMP) was 1.0 μM. All agents examined were dissolved in dimethyl sulfoxide (DMSO). Final concentration of the reaction medium was either 2.5% (cardiac and platelet studies) or 1.25% (smooth muscle studies). This concentration of DMSO produced an approximately 10% inhibition of enzyme activity.

adenosine A1 receptor = molecular target: T1, adenosine A1 receptor (Rattus norvegicus, UniProt P25099); test: Adenosine Receptor Binding - A1 Receptor Affinity (RBA1), [3H]-N6-cyclohexyladenosine displacement; details: [3H]-CHA 1.0 nM, rat brain membranes, 25° C., one hour; read-out: RBA-1, IC50 for adenosine A1 receptor affinity
T1 construct: Whole brain minus cerebellum and brainstem from male Long Evans rats; from tissue; host or cells: whole brain minus cerebellum and brainstem, male Long Evans rats (membranes)
T1 sequence (P25099 1-326): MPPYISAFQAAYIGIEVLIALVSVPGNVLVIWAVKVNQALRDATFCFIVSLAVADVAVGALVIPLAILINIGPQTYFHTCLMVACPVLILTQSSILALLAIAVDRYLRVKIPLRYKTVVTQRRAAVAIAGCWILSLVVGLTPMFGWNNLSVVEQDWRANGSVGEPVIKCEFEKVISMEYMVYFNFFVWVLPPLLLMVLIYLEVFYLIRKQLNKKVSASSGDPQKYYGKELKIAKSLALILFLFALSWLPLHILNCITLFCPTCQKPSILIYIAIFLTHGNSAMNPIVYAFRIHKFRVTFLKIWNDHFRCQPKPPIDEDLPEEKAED
Procedure: Whole brain minus cerebellum and brainstem from male Long Evans rats (150-200 g) was homogenized in 30 volumes of ice-cold 0.05M Tris-HCl buffer pH 7.7 using a Brinkman Polytron PT-10, (setting number 6 for 20 seconds) and centrifuged for ten minutes at 20,000×g (Sorvall RC-2), 4° C. The supernatant was discarded, and the pellet was resuspended and centrifuged as before. […] The homogenate was again centrifuged, and the final pellet was resuspended in ice-cold 0.05 M Tris-HCl buffer pH 7.7 to a concentration of 20 mg/ml original wet tissue weight and used immediately. […] Incubation volume was 2 ml. […] The filters were rinsed three times with 5 ml of ice cold 0.05 M Tris-HCl buffer pH 7.7. The radio-labeled ligand retained on the filter was measured by liquid scintillation spectrophotometry after shaking the filters for one hour or longer on a mechanical shaker in 10 ml of Beckman Ready-Solv HP scintillation cocktail. […] The Hill coefficient was calculated by linear regression of the line obtained by plotting the log of the bound radioligand vs the log of the [formula] The maximal number of binding sites (Bmax) was calculated from the Scatchard plot.

Type 3 Phosphodiesterase = test: Phosphodiesterase (PDE) Inhibition, Type 3 Phosphodiesterase; assay type: biochemical, bovine (coronary arteries); details: Type 3 PDE, at 10^-5 M, substrate 3H-cAMP 1.0 μM
From the text: as §1, §2, §3

[1] = tested on: pentobarbital-anesthetized dog; test: In Vivo Myocardial Inotropic Activity in Anesthetized Dog (CVAD); parameters: species or system dog (adult mongrel); details: for change in vivo at 0.1 mg/kg / change in vivo at 0.31 mg/kg / change in vivo at 1 mg/kg / change in vivo at 3.1 mg/kg / change in vivo at 10 mg/kg / change in vivo at 0.3 mg/kg: Canis lupus familiaris, iv; for change in vivo at 0.1 mg/kg: 0.10 mg/kg IV; for change in vivo at 0.31 mg/kg: 0.31 mg/kg IV; for change in vivo at 1 mg/kg: 1.00 mg/kg IV; for change in vivo at 3.1 mg/kg: 3.10 mg/kg IV; for change in vivo at 10 mg/kg: 10.00 mg/kg IV; for change in vivo at 0.3 mg/kg: 0.30 mg/kg IV
Procedure: This test procedure is described in the following paragraphs.
This screen consists of determining the effects of increasing intravenous doses of compound on mycardial contractility (dP/dt max of left ventricular blood pressure), heart rate, and aortic blood pressure of the pentobarbital-anesthetized dog.
Adult mongrel dogs of either sex are anesthetized with pentobarbital, 35 mg/kg, IV, and are subsequently maintained under anesthesia with a continuous infusion of pentobarbital, 3.5 mg/kg/hour. The trachea is intubated but the animals are permitted to breathe spontaneously. A cannula is inserted into the femoral vein for administrating test agents. A Millar catheter tip pressure transducer or a fluid filled catheter is inserted into the ascending aorta via the femoral artery for measuring aortic blood pressure. A Millar catheter tip pressure transducer is passed into the left ventricle via the left carotid artery for measuring left ventricular blood pressure. Needle electrodes are placed subcutaneously for recording a lead II electrocardiogram (ECG).
Left ventricular and aortic blood pressures are recorded on a strip chart recorder. Heart rate, using a biotachometer triggered from the R wave of the ECG, and the first derivative of left ventricular blood pressure (dP/dt), obtained with a differentiator amplifier coupled to the corresponding pressure amplifier, are also recorded. A period of at least 30 minutes is utilized to obtain control data prior to administration of test compound.
Ethanol or dimethylacetamide can be used as solvents if adequate dilutions can be made. Appropriate vehicle controls are administered when needed.
Each dose of the test compound is administered in a volume of […] over a period of one minute.

[2] = read-out: Percent Change Heart Rate
[3] = read-out: Percent Change Myocardial Contractility
[4] = intravenously at about 0.01 to 0.31 mg/kg
[5] = read-out: Percent Change Blood Pressure

| Compound | % Inhibition of hydrolysis of 3H-cAMP (Type 1 Phosphodiesterase) [%] | % Inhibition of hydrolysis of 3H-cGMP (Type 1 Phosphodiesterase) [%] | IC50 (adenosine A1 receptor) [nM] | % Inhibition of hydrolysis of 3H-cAMP (Type 3 Phosphodiesterase) [%] | change in vivo at 0.1 mg/kg [1, 2] [%] | change in vivo at 0.1 mg/kg [1, 3] [%] | change in vivo at 0.31 mg/kg [1, 2] [%] | change in vivo at 0.31 mg/kg [1, 3] [%] | change in vivo at 1 mg/kg [1, 2] [%] | change in vivo at 1 mg/kg [1, 3] [%] | change in vivo at 3.1 mg/kg [1, 2] [%] | change in vivo at 3.1 mg/kg [1, 3] [%] | change in vivo at 0.1 mg/kg [1, 5] [%] | also measured |
| --- | --- | --- | --- | --- | --- | --- | --- | --- | --- | --- | --- | --- | --- | --- |
| Cc1nn(C)c2c(=O)[nH]c(Cc3ccccc3)nc12 [Example 1, 1,3-Dimethyl-5-benzylpyrazolo[4,3-d]pyrimidine-7-one] | 80 | 71 | 13100 | 23 | 2 | 8 | 3 | 12 | 6 | 23 | 14 | 42 | – | change in vivo at 10 mg/kg [1, 2]: 38%; change in vivo at 10 mg/kg [1, 3]: 95%; blood pressure (in words) [1, 4]: a moderate reduction in blood pressure; cardiac contractility (in words) [1, 4]: dose related significant increases in cardiac contractility; heart rate (in words) [1, 4]: only low or minimal changes in heart rate |
| Cc1nn(C)c2c(=O)[nH]c(-c3ccncc3)nc12 [Example 2, 1,3-Dimethyl-5-(4-pyridyl)-pyrazolo[4,3-d]pyrimidine-7-one] | 5 | 13 | 953 | 20 | 1 | 4 | 1 | 7 | 28 | 53 | 49 | 121 | 0 | – |
| CCn1nc(C)c2nc(-c3ccncc3)[nH]c(=O)c21 [Example 3, 1-Ethyl-3-methyl-5-(4-pyridyl)pyrazolo[4,3-d]pyrimidine-7-one] | 33 | 19 | 237 | 55 | 4 | 12 | – | – | -1 | 47 | 16 | 91 | 2 | change in vivo at 0.3 mg/kg [1, 5]: 2%; change in vivo at 0.3 mg/kg [1, 2]: 7%; change in vivo at 0.3 mg/kg [1, 3]: 20%; change in vivo at 1 mg/kg [1, 5]: 2%; change in vivo at 3.1 mg/kg [1, 5]: 8% |
